From ChEMBL document CHEMBL3860027, “α-Pyrones with Diverse Hydroxy Substitutions from Three Marine-Derived Nocardiopsis Strains” (2016)
Converted amounts (≈) assume the structure as drawn.

How the values were obtained:
Bacillus subtilis = test: Antibacterial activity against Bacillus subtilis SCSIO BS01 by broth microdilution method; format: functional
Micrococcus luteus = test: Antibacterial activity against Micrococcus luteus SCSIO ML01 by broth microdilution method; format: functional

Row | MIC (Bacillus subtilis) [µg/mL] | MIC (Micrococcus luteus) [µg/mL] | SMILES
1 | 64 (≈ 385 µM) |  | CC[C@@H](C)c1ccc(C)c(=O)o1
2 | 64 (≈ 355 µM) | 32 (≈ 178 µM) | CCc1ccc(CC(C)C)c(=O)o1
3 |  | 32 (≈ 178 µM) | CCc1ccc([C@H](C)CC)oc1=O
4 |  | 32 (≈ 163 µM) | CCc1ccc(CC(C)(C)O)c(=O)o1
5 |  | 16 (≈ 81.5 µM) | CC(C)Cc1ccc(C(C)O)oc1=O (racemic)
